Measurements: PubChem BioAssay (NCI)
Several values for one entry are separate records, joined by “and”; a condition that tells them apart may be missing. Equal entries are not always repeated.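 How tested: cells in 96-well plates exposed to compound for 48 hours at five concentrations. GI50 marks 50% less growth. TGI is the concentration that stops growth completely.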

Experiments:
Assay in all cases: NCI-60 cell line screen, 48 h
SN12C renal = test system: SN12C renal
MALME-3M melanoma = test system: MALME-3M melanoma
UO-31 renal = test system: UO-31 renal
NCI-H522 lung = test system: NCI-H522 lung
UACC-62 melanoma = test system: UACC-62 melanoma
SK-MEL-28 melanoma = test system: SK-MEL-28 melanoma
OVCAR-4 ovarian = test system: OVCAR-4 ovarian
RXF 393 renal = test system: RXF 393 renal
MDA-MB-231 breast = test system: MDA-MB-231 breast
NCI-H23 lung = test system: NCI-H23 lung
786-0 renal = test system: 786-0 renal
KM12 colon = test system: KM12 colon

Structure (SMILES)	TGI (SN12C renal)	TGI (MALME-3M melanoma)	TGI (UO-31 renal)	TGI (NCI-H522 lung)	TGI (UACC-62 melanoma)	TGI (SK-MEL-28 melanoma)	TGI (OVCAR-4 ovarian)	TGI (RXF 393 renal)	TGI (MDA-MB-231 breast)	TGI (NCI-H23 lung)	TGI (786-0 renal)	TGI (KM12 colon)	GI50 (UO-31 renal)	GI50 (UACC-62 melanoma)	GI50 (SK-MEL-28 melanoma)	GI50 (KM12 colon)	GI50 (MALME-3M melanoma)	GI50 (NCI-H522 lung)	GI50 (MDA-MB-231 breast)
Nc1nc(Cl)cc(NCC2(CO)CC(CCc3ccccc3)C2)n1 (stereo not given)	> 100 µM	> 100 µM	> 100 µM	> 100 µM	> 100 µM	> 100 µM	> 100 µM	> 100 µM	> 100 µM	> 100 µM	> 100 µM	> 100 µM	–	–	–	–	–	–	–
CCN(CC)CCOC(c1cc(OC)ccc1OC)c1ccc2n1-c1ccccc1OC2 (stereo not given)	7.69 µM	35.8 µM	23 µM	30 µM	7.75 µM	29 µM	31.9 µM	21.4 µM	5.46 µM	25.6 µM	36.9 µM	34.2 µM	–	–	–	–	–	–	–
CCCN=C1CC(C)Nc2ccccc2N1 (stereo not given)	> 100 µM	> 100 µM	> 100 µM	> 100 µM	> 100 µM	> 100 µM	> 100 µM	> 100 µM	> 100 µM	> 100 µM	> 100 µM	> 100 µM	–	–	–	–	–	–	–
CCC(=O)C(c1ccccc1)c1ccccn1 (stereo not given)	> 100 µM	> 100 µM	> 100 µM	> 100 µM	> 100 µM	> 100 µM	> 100 µM	> 100 µM	> 100 µM	> 100 µM	> 100 µM	> 100 µM	–	–	–	–	–	–	–
C=CC(=O)c1ccc2c(c1)OCCOCCOCCOCCOCCO2	52.8 µM	33.6 µM	> 58 µM	24.7 µM	92 µM	34 µM	36.3 µM	32.3 µM	36 µM	> 64.2 µM	31.1 µM	> 100 µM	–	–	–	–	–	–	–
N#C/C(=C\NC(=S)Nc1ccc(S(=O)(=O)Nc2ccccn2)cc1)C(N)=O	> 100 µM	> 100 µM	> 100 µM	> 100 µM	> 100 µM	> 100 µM	> 100 µM	> 100 µM	> 100 µM	> 100 µM	> 100 µM	> 100 µM	–	–	–	–	–	–	–
COC(=O)C1(Cc2ccccc2)Cc2cc3c(cc2C1=O)CCC3 (stereo not given)	> 100 µM	56.6 µM	> 100 µM	64.2 µM	> 100 µM	> 100 µM	> 100 µM	> 100 µM	> 100 µM	> 100 µM	> 100 µM	81.6 µM	–	–	–	–	–	–	–
CCCCCCCCCC[C@@H](O)[C@H]1CC[C@H]([C@H]2CC[C@H]([C@H](O)CCCCCCCCCC[C@@H]3CC(CC(C)=O)C(=O)O3)O2)O1 (stereo not given in full)	> 50 µM	> 50 µM	> 50 µM	> 50 µM	> 50 µM	> 50 µM	> 50 µM	> 50 µM	> 50 µM	> 50 µM	> 50 µM	> 50 µM	1.66 µM	14.9 µM	5.26 µM	3.34 µM	–	–	–
COc1ccc2c(c1)c1c(n2CCN2CCOCC2)-c2ccccc2CC1	69.8 µM	66.6 µM	> 100 µM	> 100 µM	> 100 µM	> 100 µM	> 100 µM	> 100 µM	> 100 µM	> 100 µM	92.1 µM	> 100 µM	–	–	–	–	–	–	–
CC(=O)C(CN1CCCCC1)C(c1ccccc1)c1c(O)c2ccccc2oc1=O (stereo not given)	> 100 µM	> 100 µM	> 100 µM	> 100 µM	> 100 µM	> 100 µM	> 100 µM	> 100 µM	> 100 µM	> 100 µM	> 100 µM	> 100 µM	–	–	–	–	–	–	–
Cc1ccc(-c2cc(N)n(-c3nc4c([nH]3)c(=O)n(C)c(=O)n4C)n2)cc1	27.2 µM	16 µM	73.1 µM	> 100 µM	22.7 µM	94.8 µM	> 100 µM	81.1 µM	27.8 µM	28 µM	13.6 µM	38.9 µM	–	–	–	–	–	–	–
O=C1CC(c2ccco2)C2(C(=O)NC(=O)NC2=O)C(c2ccco2)C1 (stereo not given)	> 75 µM	> 75 µM	> 75 µM	> 75 µM	> 75 µM	> 75 µM	> 75 µM	> 75 µM	> 75 µM	> 75 µM	> 75 µM	> 75 µM	–	–	–	–	–	–	–
CCOC(=O)CCC(NC(=O)c1ccc(OCc2nc3cc(C(F)(F)F)ccc3nc2-c2ccccc2)cc1)C(=O)OCC (stereo not given)	> 100 µM	> 100 µM	> 100 µM	> 100 µM	> 100 µM	> 100 µM	38.4 µM	> 100 µM	> 100 µM	> 100 µM	> 100 µM	> 100 µM	–	–	–	–	–	–	–
COc1ccc(-c2c(C#N)c(S)n(C3OC(COC(C)=O)C(OC(C)=O)C(OC(C)=O)C3OC(C)=O)c(=O)c2C#N)cc1 (stereo not given)	> 100 µM	> 100 µM	> 100 µM and 70.1 µM	> 100 µM and 65.4 µM	97.9 µM and 61.9 µM	> 100 µM and 37.3 µM	> 100 µM and 77.6 µM	71.7 µM and 73 µM	83.5 µM and > 100 µM	> 100 µM	> 100 µM and 80.9 µM	> 100 µM	–	–	> 100 µM and 20.8 µM	–	77.1 µM and 37.7 µM	88.4 µM and 29.7 µM	21.7 µM and 55 µM
O=C1CC(O)c2c1csc2Br (stereo not given)	87.9 µM	82.4 µM	53.3 µM	30.4 µM	59 µM	45.1 µM	96.2 µM	38.1 µM	55 µM	59.1 µM	51.1 µM	43.3 µM	–	–	–	–	–	–	–
CCOC(=O)c1cc(C2(O)CCN(Cc3ccccc3)C2=O)c(-c2cc(C)no2)[nH]1 (stereo not given)	> 100 µM	> 100 µM	> 100 µM	43.3 µM	> 100 µM	> 100 µM	> 100 µM	65.7 µM	> 100 µM	> 100 µM	> 100 µM	> 100 µM	–	–	–	–	–	–	–
